{"source": "patent US20240384268A1", "about": "“Oligonucleotides” (Hudson Institute of Medical Research, priority 2021, published 2024)"}
{"biological_target": "T1, human TLR7 (Homo sapiens, UniProt Q9NYK1)", "T1 construct": "HA; host or cells: 293XL-hTLR7-HA (HEK293)", "T1 sequence (Q9NYK1 27-1049)": "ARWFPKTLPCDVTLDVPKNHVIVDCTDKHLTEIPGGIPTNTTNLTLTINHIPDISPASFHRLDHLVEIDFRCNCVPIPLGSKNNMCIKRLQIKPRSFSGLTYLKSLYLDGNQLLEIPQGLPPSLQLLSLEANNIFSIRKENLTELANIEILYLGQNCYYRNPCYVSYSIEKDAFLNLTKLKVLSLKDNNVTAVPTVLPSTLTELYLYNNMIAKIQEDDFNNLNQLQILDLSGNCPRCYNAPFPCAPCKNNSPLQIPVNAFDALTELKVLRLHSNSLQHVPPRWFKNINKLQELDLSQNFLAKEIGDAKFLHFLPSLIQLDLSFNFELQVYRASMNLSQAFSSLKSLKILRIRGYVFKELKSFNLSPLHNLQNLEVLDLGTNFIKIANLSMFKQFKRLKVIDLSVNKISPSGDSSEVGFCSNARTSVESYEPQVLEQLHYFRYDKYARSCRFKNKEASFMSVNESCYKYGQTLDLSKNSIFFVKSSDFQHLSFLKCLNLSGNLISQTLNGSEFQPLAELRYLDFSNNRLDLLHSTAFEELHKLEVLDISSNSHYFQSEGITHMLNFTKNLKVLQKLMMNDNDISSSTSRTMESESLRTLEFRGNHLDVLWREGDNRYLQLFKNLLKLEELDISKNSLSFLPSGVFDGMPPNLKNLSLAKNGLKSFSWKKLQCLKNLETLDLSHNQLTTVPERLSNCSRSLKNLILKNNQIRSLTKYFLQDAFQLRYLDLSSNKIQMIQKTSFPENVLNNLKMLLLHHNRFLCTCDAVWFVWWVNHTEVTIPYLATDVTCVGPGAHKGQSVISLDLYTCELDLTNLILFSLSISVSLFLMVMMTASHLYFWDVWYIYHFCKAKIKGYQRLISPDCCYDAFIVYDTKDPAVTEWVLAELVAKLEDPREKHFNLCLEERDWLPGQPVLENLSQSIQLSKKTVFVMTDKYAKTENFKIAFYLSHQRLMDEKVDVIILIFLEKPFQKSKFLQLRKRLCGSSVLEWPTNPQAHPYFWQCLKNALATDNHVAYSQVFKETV", "assay": "HEK-TLR7 NF-κB-luciferase reporter, R848 stimulation", "format": "cell-based", "conditions": "MOE-modified ASO at 100 nM; averaged NF-κB-Luciferase relative to R848 condition"}
{"sequence": "GGTCCATACCCAAGGCATCC (antisense; 2'-MOE modified, pattern not given here) [CTNN2B-2446 MOE]", "TLR7 100 nM": 0.364}
{"sequence": "GGTGGTCCACAACCCCTTTC (antisense; 2'-MOE modified, pattern not given here) [MB21D1-697 MOE]", "TLR7 100 nM": 0.620}
{"sequence": "GGTGGTGGCCACCCATCTCA (antisense; 2'-MOE modified, pattern not given here) [CTNN2B-2479 MOE]", "TLR7 100 nM": 0.480}
{"sequence": "GGTGTCCTTGCACGTGGCTT (antisense; 2'-MOE modified, pattern not given here) [EGFR-1016 MOE]", "TLR7 100 nM": 0.358}
{"sequence": "GTCCACATCCTGTGGCTCGT (antisense; 2'-MOE modified, pattern not given here) [CAMSAP1-2906 MOE]", "TLR7 100 nM": 0.299}
{"sequence": "GTCCTTGCACGTGGCTTCGT (antisense; 2'-MOE modified, pattern not given here) [EGFR-1013 MOE]", "TLR7 100 nM": 0.216}
{"sequence": "GTCTTGGCTTCGTGGAGCAG (antisense; 2'-MOE modified, pattern not given here) [MB21D1-520 MOE]", "TLR7 100 nM": 0.372}
{"sequence": "GTGTCCTTGCACGTGGCTTC (antisense; 2'-MOE modified, pattern not given here) [EGFR-1015 MOE]", "TLR7 100 nM": 0.377}
{"sequence": "GTGTCTTCATCGGCCCTGCC (antisense; 2'-MOE modified, pattern not given here) [CAMSAP1-2113 MOE]", "TLR7 100 nM": 0.371}
{"sequence": "TAGGCACTTTGCCTCCTTCT (antisense; 2'-MOE modified, pattern not given here) [EGFR-2859 MOE]", "TLR7 100 nM": 0.455}
{"sequence": "TAGTCAAGGGCATATCCTAC (antisense; 2'-MOE modified, pattern not given here) [HPRT-732 MOE]", "TLR7 100 nM": 0.423}
{"sequence": "TCAAAGGACTGAGGAAAGGG (antisense; 2'-MOE modified, pattern not given here) [CAMSAP1-6273 MOE]", "TLR7 100 nM": 0.397}
{"sequence": "TCCAACACTTCGTGGGGTCC (antisense; 2'-MOE modified, pattern not given here) [HPRT-667 MOE]", "TLR7 100 nM": 0.929}
{"sequence": "TCGCACTTCAGTCTGAGCAG (antisense; 2'-MOE modified, pattern not given here) [MB21D1-719 MOE]", "TLR7 100 nM": 0.574}
{"sequence": "TGTCCTTGCACGTGGCTTCG (antisense; 2'-MOE modified, pattern not given here) [EGFR-1014 MOE]", "TLR7 100 nM": 0.029}
{"sequence": "TGTCTTCATCGGCCCTGCCT (antisense; 2'-MOE modified, pattern not given here) [CAMSAP1-2112 MOE]", "TLR7 100 nM": 0.396}
{"sequence": "TGTGATGGCCTCCCATCTCC (antisense; 2'-MOE modified, pattern not given here) [HPRT-332 MOE]", "TLR7 100 nM": 0.312}
{"sequence": "TTCTGCAGCTTCCTTGTCCT (antisense; 2'-MOE modified, pattern not given here) [CTNN2B-2136 MOE]", "TLR7 100 nM": 0.183}
{"sequence": "TTGCACACTTCGTACCCAAA (antisense; 2'-MOE modified, pattern not given here) [CAMSAP1-4915 MOE]", "TLR7 100 nM": 0.418}
{"sequence": "TTGCCATGCTGGCTCGGACT (antisense; 2'-MOE modified, pattern not given here) [CAMSAP1-2584 MOE]", "TLR7 100 nM": 0.445}
{"sequence": "TTGGCTCGGCTTGCCTACTT (antisense; 2'-MOE modified, pattern not given here) [CAMSAP1-5594 MOE]", "TLR7 100 nM": 0.523}
{"biological_target": "T1, human TLR7", "assay": "HEK-TLR7 NF-κB-luciferase reporter, R848 stimulation", "format": "cell-based", "conditions": "MOE-modified ASO at 500 nM; averaged NF-κB-Luciferase relative to R848 condition"}
{"sequence": "GGTCCATACCCAAGGCATCC (antisense; 2'-MOE modified, pattern not given here) [CTNN2B-2446 MOE]", "TLR7 500 nM": 0.096}
{"sequence": "GGTGGTCCACAACCCCTTTC (antisense; 2'-MOE modified, pattern not given here) [MB21D1-697 MOE]", "TLR7 500 nM": 0.097}
{"sequence": "GGTGGTGGCCACCCATCTCA (antisense; 2'-MOE modified, pattern not given here) [CTNN2B-2479 MOE]", "TLR7 500 nM": 0.192}
{"sequence": "GGTGTCCTTGCACGTGGCTT (antisense; 2'-MOE modified, pattern not given here) [EGFR-1016 MOE]", "TLR7 500 nM": 0.131}
{"sequence": "GTCCACATCCTGTGGCTCGT (antisense; 2'-MOE modified, pattern not given here) [CAMSAP1-2906 MOE]", "TLR7 500 nM": 0.119}
{"sequence": "GTCCTTGCACGTGGCTTCGT (antisense; 2'-MOE modified, pattern not given here) [EGFR-1013 MOE]", "TLR7 500 nM": 0.088}
{"sequence": "GTCTTGGCTTCGTGGAGCAG (antisense; 2'-MOE modified, pattern not given here) [MB21D1-520 MOE]", "TLR7 500 nM": 0.095}
{"sequence": "GTGTCCTTGCACGTGGCTTC (antisense; 2'-MOE modified, pattern not given here) [EGFR-1015 MOE]", "TLR7 500 nM": 0.212}
{"sequence": "GTGTCTTCATCGGCCCTGCC (antisense; 2'-MOE modified, pattern not given here) [CAMSAP1-2113 MOE]", "TLR7 500 nM": 0.132}
{"sequence": "TAGGCACTTTGCCTCCTTCT (antisense; 2'-MOE modified, pattern not given here) [EGFR-2859 MOE]", "TLR7 500 nM": 0.205}
{"sequence": "TAGTCAAGGGCATATCCTAC (antisense; 2'-MOE modified, pattern not given here) [HPRT-732 MOE]", "TLR7 500 nM": 0.191}
{"sequence": "TCAAAGGACTGAGGAAAGGG (antisense; 2'-MOE modified, pattern not given here) [CAMSAP1-6273 MOE]", "TLR7 500 nM": 0.189}
{"sequence": "TCCAACACTTCGTGGGGTCC (antisense; 2'-MOE modified, pattern not given here) [HPRT-667 MOE]", "TLR7 500 nM": 0.578}
{"sequence": "TCGCACTTCAGTCTGAGCAG (antisense; 2'-MOE modified, pattern not given here) [MB21D1-719 MOE]", "TLR7 500 nM": 0.241}
{"sequence": "TGTCCTTGCACGTGGCTTCG (antisense; 2'-MOE modified, pattern not given here) [EGFR-1014 MOE]", "TLR7 500 nM": 0.057}
{"sequence": "TGTCTTCATCGGCCCTGCCT (antisense; 2'-MOE modified, pattern not given here) [CAMSAP1-2112 MOE]", "TLR7 500 nM": 0.185}
{"sequence": "TGTGATGGCCTCCCATCTCC (antisense; 2'-MOE modified, pattern not given here) [HPRT-332 MOE]", "TLR7 500 nM": 0.238}
{"sequence": "TTCTGCAGCTTCCTTGTCCT (antisense; 2'-MOE modified, pattern not given here) [CTNN2B-2136 MOE]", "TLR7 500 nM": 0.059}
{"sequence": "TTGCACACTTCGTACCCAAA (antisense; 2'-MOE modified, pattern not given here) [CAMSAP1-4915 MOE]", "TLR7 500 nM": 0.233}
{"sequence": "TTGCCATGCTGGCTCGGACT (antisense; 2'-MOE modified, pattern not given here) [CAMSAP1-2584 MOE]", "TLR7 500 nM": 0.138}
{"sequence": "TTGGCTCGGCTTGCCTACTT (antisense; 2'-MOE modified, pattern not given here) [CAMSAP1-5594 MOE]", "TLR7 500 nM": 0.204}
